Read-outs that look alike come from different tables or passages of the source.
Key:
[1] = cited from earlier work; for Clearance (route) / Clearance (time; half-life): in vivo; for uptake by hepatocytes: during excretion
serum albumin = serum albumin (Homo sapiens, UniProt P02768); details: cited from earlier work
[2] = Relaxivity measurements (T1 and T2 relaxation times, Bruker minispec mq60/mq20); type: physicochemical; details: aqueous solution, 37° C.
Method: T1 and T2 relaxation times were measured at the STTARR Innovation Centre in Toronto, Canada using a Bruker minispec mq60, and at the Bruker Showroom in Milton, Canada using a Bruker minispec mq20. Measurements were carried out on a series of 6 aqueous dilutions between 0-5 mM.
The T1 and T2 relaxation times of the 8 soluble, pure complexes were measured in aqueous solution at 37° C., at both 20 and 60 MHz.

[3] = system: primary rat renal proximal tubule epithelial cells (RPTECs); test: In vitro toxicity, MTT assay; type: cell-based; details: for IC50: rat RPTECs, MTT, read-out: Inhibitory concentration IC50; for cytotoxicity: 10 h time point, compared with 4 h
Method: Gadodiamide (Selleckchem, Lot #02) was used as the reference compound. It is one of the 8 Gd(III)-based MRI agents approved for use in Canada (trade name: Omniscan™).
The test articles and reference compound were weighed and dissolved in the incubation medium to give the highest test concentration of 30 mM. The solution was filter sterilized and diluted to the remaining test concentrations of 10 mM, 3.3 mM, 1.1 mM, 0.36 mM, 0.12 mM and 0.04 mM.
Cryopreserved primary rat renal proximal tubule epithelial cells (RPTECs) (ScienCell Research Laboratories, Carlsbad, Calif.) were used for the study. The rat RPTECs were thawed completely at 37° C., and transferred to epithelial cell medium (ScienCell Research Laboratories, Carlsbad, Calif.) followed by plating in poly-L-lysine coated 96-well plates. The RPTECs were allowed to recover and grow in a cell culture incubator (37° C., humidified atmosphere of 5% carbon dioxide and 95% air) for 3 additional days with a medium change every alternate day.
Following 3 days of plating, the RPTECs were washed once with serum free epithelial cell medium (ScienCell Research Laboratories, Carlsbad, Calif.) followed by treatment with the test, reference or control articles for 2, 4, 10 or 24 h. All treatments were performed in triplicate.
Cellular viability and metabolic activity were assessed by using the 3-(4,5-dimethylthiazol-2-yl)-2,5-diphenyl tetrazolium bromide (MTT) uptake assay. A 10× stock of the MTT dye was prepared in phosphate buffered saline (PBS). An aliquot of dye was added 2 hrs before the intended time point to achieve a final 1× concentration, after which incubation (37° C., humidified atmosphere of 5% carbon dioxide and 95% air) continued until the desired time point. For the 2 hr time point, the aliquot of dye was added immediately after the test articles. Following incubation, all media was aspirated from the wells and the plates were allowed to dry. The resulting formazan crystals were dissolved in DMSO using an orbital shaker, and the absorbance at 570 nm was measured using a Victor ^3V multilabel plate reader (reference wavelength=650 nm).
The inhibitory concentration (IC50, the concentration resulting in 50% toxicity) was determined by plotting log concentration vs. relative viability, followed by non-linear regression of the curve using Graph Pad Prism 5.0.
An in vitro toxicity study was performed in order to evaluate the cytotoxic potential of several of the agents in primary rat renal proximal tubule epithelial cells (RPTECs), prior to performing in vivo studies. The Mn^II and Gd^III complexes of L1, L2 and L6 (complexes 1, 2, 5, and 7-9) were evaluated at seven concentrations (30 mM, 10 mM, 3.3 mM, 1.1 mM, 0.36 mM, 0.12 mM and 0.04 mM) after 2, 4, 10 and 24 hours of treatment in rat RPTECs. The MTT assay was used as an indicator of viability. The nephrotoxic potential of the test articles was compared to the toxicity observed in the presence of the approved agent Gadodiamide. The results are summarized in Table 4, where the inhibitory concentration (IC50, the concentration resulting in 50% toxicity) was determined by plotting log concentration vs. relative viability.

serum albumin, sequence (P02768 25-609): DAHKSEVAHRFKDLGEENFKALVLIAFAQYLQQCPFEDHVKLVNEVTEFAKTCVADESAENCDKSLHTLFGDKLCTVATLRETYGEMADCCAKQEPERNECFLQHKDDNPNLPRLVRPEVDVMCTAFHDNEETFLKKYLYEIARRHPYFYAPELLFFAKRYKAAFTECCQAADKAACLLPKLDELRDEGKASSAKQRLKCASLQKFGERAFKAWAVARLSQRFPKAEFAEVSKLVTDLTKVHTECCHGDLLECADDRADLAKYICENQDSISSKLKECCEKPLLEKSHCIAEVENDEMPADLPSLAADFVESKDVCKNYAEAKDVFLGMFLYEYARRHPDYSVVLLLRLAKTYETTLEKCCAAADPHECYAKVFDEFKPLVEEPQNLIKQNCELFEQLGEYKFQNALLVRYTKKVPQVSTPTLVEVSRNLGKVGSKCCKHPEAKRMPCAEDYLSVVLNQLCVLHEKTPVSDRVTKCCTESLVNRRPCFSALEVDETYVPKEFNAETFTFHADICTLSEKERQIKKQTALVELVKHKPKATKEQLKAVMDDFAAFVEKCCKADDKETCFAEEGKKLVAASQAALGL

SMILES: CNC[C@H](O)[C@@H](O)[C@H](O)[C@H](O)CO.O=C([O-])CN1CCN(CC(=O)[O-])CCN(CC(=O)O)CCN(CC(=O)[O-])CC1.[Gd+3] [Dotarem, gadoterate]
- Clearance (route) [1]: renal

SMILES: O=C([O-])CN(CCN(CC(=O)[O-])C[C@H](COP(=O)([O-])OC1CCC(c2ccccc2)(c2ccccc2)CC1)N(CC(=O)[O-])CC(=O)[O-])CC(=O)[O-].[Gd+3].[H+].[H+].[H+] [Ablavar or Vasovist, gadofosveset]
- binding to serum albumin (serum albumin): selectively binds to the blood protein serum albumin
- Clearance (route) [1]: renal/hepatic
- Clearance (time; half-life) [1]: 18.5 h

SMILES: CCOc1ccc(CC(CN(CCN(CC(=O)[O-])CC(=O)[O-])CC(=O)[O-])N(CC(=O)[O-])CC(=O)[O-])cc1.[Gd+3].[Na+].[Na+] (stereo not shown) [Eovist or Primovist, gadoxetate]
- uptake by hepatocytes [1]: taken up by hepatocytes during excretion
- Clearance (route) [1]: renal/hepatic

SMILES: CC1=Nc2ccccc2OCCOCCOc2ccccc2N=C(C)c2cccc1n2.O.O.[Cl-].[Cl-].[Mn+2] [Compound 5, [MnL6Cl2].2H2O]
- r1 relaxivity ([2]; 20 MHz): 7.22 s⁻¹ mM⁻¹
- r1 relaxivity ([2]; 60 MHz): 2.97 s⁻¹ mM⁻¹
- IC50 ([3]; 2 hr treatment): 1250 µM
- IC50 ([3]; 4 hr treatment): 670 µM
- IC50 ([3]; 10 hr treatment): 1390 µM
- cytotoxicity [3]: exhibited a slight reduction in toxicity
- IC50 ([3]; 24 hr treatment): 210 µM

SMILES: CNC[C@H](O)[C@@H](O)[C@H](O)[C@H](O)CO.CNC[C@H](O)[C@@H](O)[C@H](O)[C@H](O)CO.O=C([O-])CN(CCN(CC(=O)[O-])CC(=O)O)CCN(CC(=O)O)C(COCc1ccccc1)C(=O)[O-].[Gd+3] (stereo not shown) [Multihance, gadobenate]
- uptake by hepatocytes [1]: taken up by hepatocytes during excretion
- Clearance (route) [1]: renal/hepatic
- Clearance (time; half-life) [1]: 1.2 to 2 h

SMILES: CC1=NCCNCCNCCN=C(C)c2cccc1n2.O.O.O.[Cl-].[Cl-].[Cl-].[Gd+3] [Compound 7, [GdL1Cl3].3H2O]
- r1 relaxivity ([2]; 20 MHz): 6.43 s⁻¹ mM⁻¹
- r1 relaxivity ([2]; 60 MHz): 5.58 s⁻¹ mM⁻¹
- IC50 ([3]; 2 hr treatment): 8150 µM
- IC50 ([3]; 4 hr treatment): 3370 µM
- IC50 ([3]; 10 hr treatment): 8530 µM
- cytotoxicity [3]: exhibited a slight reduction in toxicity
- IC50 ([3]; 24 hr treatment): 920 µM

SMILES: CC(O)CN1CCN(CC(=O)[O-])CCN(CC(=O)[O-])CCN(CC(=O)[O-])CC1.[Gd+3] (stereo not shown) [Prohance, gadoteridol]
- Clearance (route) [1]: renal
- Clearance (time; half-life) [1]: 1.57 h

SMILES: CNC(=O)CN(CCN(CCN(CC(=O)[O-])CC(=O)NC)CC(=O)[O-])CC(=O)[O-].[Gd+3] [Gadodiamide, gadodiamide, reference compound]
- nephrotoxicity ([3]; 2 and 4 h of treatment, 0.04-30 mM): did not show significant nephrotoxicity
- IC50 ([3]; 10 hr treatment): > 30000 µM
- cytotoxicity [3]: showed more toxicity than earlier time points
- nephrotoxic effects ([3]; 24 h of treatment): exhibiting the least nephrotoxic effects
- IC50 ([3]; 24 hr treatment): 31000 µM
- Clearance (route) [1]: renal
- Clearance (time; half-life) [1]: 1.30 h

SMILES: O=C([O-])CN1CCN(CC(=O)[O-])CCN([C@H](CO)[C@H](O)CO)CCN(CC(=O)[O-])CC1.[Gd+3] (racemic) [Gadavist, gadobutrol]
- Clearance (route) [1]: renal

SMILES: O=C([O-])CN(CCN(CC(=O)[O-])CC(=O)O)CCN(CC(=O)[O-])CC(=O)O.[Gd+3] [Magnevist, gadopentetate]
- Clearance (route) [1]: renal
- Clearance (time; half-life) [1]: 1.60 h

SMILES: COCCNC(=O)CN(CCN(CCN(CC(=O)[O-])CC(=O)NCCOC)CC(=O)[O-])CC(=O)[O-].[Gd+3] [OptiMARK, gadoversetamide]
- Clearance (route) [1]: renal
- Clearance (time; half-life) [1]: 1.73 h

Reference: US10377783B2, “Methods and compounds for enhancing contrast in magnetic resonance imaging (MRI)” (priority 2015, dated 2019)
